{"source": "patent US5064813A", "about": "“Combination therapy for selected sex steroid dependent cancers” (priority 1989, dated 1991)", "key": {"advanced breast cancer": {"test_system": "advanced breast cancer", "conditions": "cited from earlier work"}, "serum testosterone": {"test_system": "serum testosterone", "assay": "LHRH agonist-induced serum testosterone in the dog (RIA)", "assay_type": "in vivo", "conditions": "dogs; for prevention of the LHRH agonist-induced rise in serum testosterone: per os three times daily with 50 μg LHRH-A daily (ketoconazole 200 mg; aminoglutethimide 125 mg plus hydrocortisone), first days of treatment, FIG. 2 and 3", "procedure": "Eighteen mongrel dogs weighing between 20-30 kg were randomly divided into three groups. The animals were housed one per cage and fed Purina Dog Chow and tap water ad libitum.\nThe animals of group 1 were injected daily (at 0700h) with 50 μg of the LHRH agonist [D-Trp^6, des-Gly-NH2^10 ]LHRH ethylamide (LHRH-A). In group 2, the animals were also injected daily with 50 μg of LHRH-A and took in addition 200 mg of ketoconazole per os at 0700h, 1500h and 2300h. The animals of group 3 received daily 50 μg of LHRH-A and 125 mg of aminoglutethimide per os at 0700h, 1500h, 2300h plus 10 mg of hydrocortisone twice daily.\nBlood samples were collected at 0700h, 0900h, 1100h and 1500h one day before treatment and every day during the treatment. Plasma was extracted with diethyl ether and testosterone was separated on LH-20 columns before RIA measurements."}, "testosterone levels": {"test_system": "testosterone levels", "conditions": "rodents, in combination with chronic administration of Leuprolide; Santen et al. 1984; cited from earlier work"}}, "data": [{"compound": "CC/C(=C(\\c1ccccc1)c1ccc(OCCN(C)C)cc1)c1ccccc1", "note": "[Tamoxifen, (Z)-2-[4-(1,2-diphenyl-1-butenyl)phenoxy]-N,N-dimethylethanamine]", "values": [{"measurement": "remission of advanced breast cancer, share of the patients treated", "setting": "advanced breast cancer; Tamoxifen alone, Mouridsen et al. 1978", "result": "about 30%"}, {"measurement": "objective remission of breast cancer", "setting": "advanced breast cancer; combined use with the LH-RH agonist Buserelin, Klijn et al. 1984", "result": 35, "unit": "%"}]}, {"compound": "CCNC(=O)[C@@H]1CCCN1C(=O)[C@H](CCCNC(=N)N)NC(=O)[C@H](CC(C)C)NC(=O)[C@@H](Cc1c[nH]c2ccccc12)NC(=O)[C@H](Cc1ccc(O)cc1)NC(=O)[C@H](CO)NC(=O)[C@H](Cc1c[nH]c2ccccc12)NC(=O)[C@H](Cc1c[nH]cn1)NC(=O)[C@@H]1CCC(=O)N1", "note": "[[D-Trp^6 des-Gly-NH2^10]LHRH ethylamide, [D-Trp^6, des-Gly-NH2^10]LHRH ethylamide]", "values": [{"measurement": "level of serum testosterone on day 19", "setting": "serum testosterone; daily injection of 50 μg, day 19, FIG. 1", "result": "near-castration levels"}, {"measurement": "increase in serum testosterone", "setting": "serum testosterone; daily injection of 50 μg, one to six days following start of treatment, FIG. 1", "result": "approximately 500 % above control"}]}, {"compound": "CCC1(c2ccc(N)cc2)CCC(=O)NC1=O", "note": "(stereo not shown) [aminoglutethimide, 3-(4-aminophenyl)-3-ethyl-2,6-piperidinedione]", "values": [{"measurement": "prevention of the LHRH agonist-induced rise in serum testosterone", "setting": "serum testosterone", "result": "almost completely prevented"}]}, {"compound": "CC(=O)N1CCN(c2ccc(OCC3COC(Cn4ccnc4)(c4ccc(Cl)cc4Cl)O3)cc2)CC1", "note": "(stereo not shown) [ketoconazole]", "values": [{"measurement": "prevention of the LHRH agonist-induced rise in serum testosterone", "setting": "serum testosterone", "result": "almost completely prevented"}, {"measurement": "basal and Leuprolide stimulated testosterone levels", "setting": "testosterone levels", "result": "decreased"}]}]}
